Where two headings read alike, the source gives them in different places.
Tests used:
[1] = test system: Human RSV-A (“Long” strain); assay: RSV-A assay (CPE, ATPlite readout in Hep-2 cells); type: cell-based; conditions: Hep-2 cells, MOI 0.1, 5-day incubation, ATPlite, read-out: Human RSV-A (“Long” strain) EC50
Text: Hep-2 cells, (originally derived from tumors grown in irradiated-cortisonised weanling rats that had been injected with epidermoid carcinoma tissue from a person's larynx, but later found to be indistinguishable from HeLa cells by PCR DNA analysis), were used for the culturing of genotype A, “Long” strain RSV. Flasks were inoculated with RSV and viral stocks were collected once cytopathic effect (CPE) was greater than 90%. Viral stocks in 25% sucrose media were snap frozen using liquid nitrogen to increase viral stability. Viral stock titers were quantified by tissue culture infectious dose 50% (TCID50) using 8,000 cells per well and 3-fold viral dilutions across a 96-well plate, cultured for 4 days. Viral stock titers were also quantified by a plaque forming unit assay, as described elsewhere.
Following extensive parameter testing, the final assay is run as follows: Hep-2 cells are seeded into the inner 60 wells of a 96-well plate at 8,000 cells per well in a volume of 50 μL using Growth Media (DMEM without phenol red, 1% L-Glut, 1% Penn/Strep, 1% nonessential amino acids, 10% heat-inactivated FBS). 2-fold serial dilutions of control and test compounds are added to the wells in duplicate in a total volume of 25 μL. Viral stock is then added to the wells at a multiplicity of infection (MOI) of 0.1 in a volume of 25 μL, bringing the total volume of each well to 100 μL. The MOI is calculated using the PFU/mL, or TCID50 if unavailable. Each 96-well plate has a control column of 6 wells with cells and virus but no compound (negative control, max CPE), a column with cells but no compound or virus (positive control, minimum CPE), and a column with no cells or virus or compound (background plate/reagent control). The control wells with cells but no virus are given an additional […], of growth media containing an equal quantity of sucrose as those wells receiving the viral stock in order to keep consistent in media and volume conditions. The outer wells of the plate are filled with 125 μL of moat media (DMEM, 1% Penn/Strep) to act as a thermal and evaporative moat around the test wells. Following a 5-day incubation period, the plates are read using ATPlite (50 uL added per well), which quantifies the amount of ATP (a measure of cell health) present in each well. Assay plates are read using the Envision luminometer. […] EC50 ranges are as follows: A<0.2 μM; B≥0.2 μM.

[2] = test system: rHMPV-GFP (recombinant HMPV CAN97-83, MPV-GFP1); assay: HMPV antiviral assay (eGFP fluorescence in Vero E6 cells); type: cell-based; conditions: read-out: rHMPV-GFP EC50
Description: HMPV antiviral activity was evaluated using a recombinant version of HMPV CAN97-83 engineered to contain the coding sequence for enhanced green fluorescence protein (eGFP) in the 3′ end of the virus genome (MPV-GFP1, ViraTree). Vero E6 cells (ATCC #CCL-7) were seeded at a density of 12,000 cells/100 μL/well into 96-well cell plates (VENDOR) one day prior to the assay. On the day of screening, the cell culture medium was aspirated from the wells and cells were washed twice with serum-free Eagle's Modified Essential Medium (EMEM, ATCC #) containing 1% penicillin-streptomycin (Invitrogen) (SF-EMEM). Cell washes were performed by dispensing 100 μL SF-EMEM per well and immediately aspirating the wash medium from the well. Following the second wash step, serum-free OptiMEM (Invitrogen, Cat No.) (SF-OptiMEM) containing 0.5 μg/mL TPCK-Trypsin (VENDOR) and 1% penicillin-streptomycin was added to the cells at 50 μL/well. Compounds were added into the 96-well plates using a JANUS automated liquid handling system (VENDOR). Compounds were initially diluted 1:50 into an intermediate 96-well plate containing SF-OptiMEM prior to transfer to the assay plate (25 μL/well). Each of the test compounds was tested in duplicate wells at final concentrations starting from 8 μM or 2 μM using ½ stepwise dilutions for a total of 8 points. Virus infection was performed by preparing a working stock of MPV-GFP1 at a multiplicity of infection (MOI) equal to 0.05/25 μL and aliquoting 25 μL of virus inoculum to the compound and positive control wells. SF-OptiMEM was added (25 μL/well) to the appropriate wells to serve as a virus-free negative control for the assay. The final DMSO concentration of all wells is 0.5%. Plates were incubated at 32° C., 5% CO2 for 5 days. After 5 days incubation, eGFP fluorescence intensity was measured at […] using a Spectramax i3X plate reader (VENDOR). Percent viral inhibition was calculated using the following equation: y=[[…]]×100 Where XQ is the fluorescence intensity measured in a well containing recombinant MPV-GFP1-infected, compound-treated cells and XP is the average fluorescence intensity measured in the wells containing untreated cells infected with recombinant virus. EC50 values were then calculated by non-linear regression using a four parameter curve logistic equation. The curve fit model employed was XLFit Dose Response One Site Model 200: y=(A+(B/(1+((x/C)^D)))) Where A is the minimum y value, B is the maximum y value, C is the log EC50 value, and D is the slope factor. The EC50 of each compound is listed in Table 2 and EC50 ranges are as follows: A<0.2 μM; B≥0.2 μM.

[3] = human respiratory syncytial virus, 120 h

| Compound | EC50 [1, 3] [nM] | EC50 ([2]; Vero C1008, 120 h) [nM] | EC50 [1] [nM] | EC50 ([2]; Vero E6 cells, MOI 0.05, 5 days at 32° C., eGFP fluorescence) [nM] |
| --- | --- | --- | --- | --- |
| COc1cc(C(=O)NC[C@](O)(c2cc3c(c(-c4ccc(F)cc4)n2)OC[C@@]3(N)C(F)(F)F)C(F)(F)F)ccc1OC1CC1 [Example 1] | < 200 | > 200 |  |  |
| COc1cc(C(=O)NC[C@](O)(c2cc3c(c(-c4ccc(F)cc4)n2)OC[C@]3(N)C(F)(F)F)C(F)(F)F)ccc1OC1CC1 [Example 3, N—((S)-2-((S)-3-amino-7-(4-fluorophenyl)-3-(trifluoromethyl)-2,3-dihydrofuro[2,3-c]pyridin-5-yl)-3,3,3-trifluoro-2-hydroxypropyl)-4-cyclopropoxy-3-methoxybenzamide] | < 200 | > 200 |  |  |
| COc1cc(C(=O)NC[C@@](O)(c2cc3c(c(-c4ccc(F)cc4)n2)OC[C@]3(N)C(F)(F)F)C(F)(F)F)ccc1OC1CC1 [Example 4, N—((R)-2-((S)-3-amino-7-(4-fluorophenyl)-3-(trifluoromethyl)-2,3-dihydrofuro[2,3-c]pyridin-5-yl)-3,3,3-trifluoro-2-hydroxypropyl)-4-cyclopropoxy-3-methoxybenzamide] | > 200 | > 200 |  |  |
| COc1cc(C(=O)NC[C@](O)(c2cc3c(c(-c4ccc(F)cc4)n2)OC[C@@]3(N)C(F)(F)F)C(F)(F)F)cc2cccnc12 [Example 5, N—((S)-2-((R)-3-amino-7-(4-fluorophenyl)-3-(trifluoromethyl)-2,3-dihydrofuro[2,3-c]pyridin-5-yl)-3,3,3-trifluoro-2-hydroxypropyl)-8-methoxyquinoline-6-carboxamide] | < 200 | > 200 |  |  |
| COc1cc(C(=O)NC[C@](O)(c2cc3c(c(-c4ccc(F)cc4)n2)OC[C@]3(N)C(F)(F)F)C(F)(F)F)cc2cccnc12 [Example 6, N—((S)-2-((S)-3-amino-7-(4-fluorophenyl)-3-(trifluoromethyl)-2,3-dihydrofuro[2,3-c]pyridin-5-yl)-3,3,3-trifluoro-2-hydroxypropyl)-8-methoxyquinoline-6-carboxamide] | < 200 | > 200 |  |  |
| COc1cc(C(=O)NC[C@](C)(O)c2cc3c(c(-c4ccc(F)cc4)n2)OC[C@@]3(N)C(F)(F)F)ccc1OC1CC1 [Example 7, N—((S)-2-((R)-3-amino-7-(4-fluorophenyl)-3-(trifluoromethyl)-2,3-dihydrofuro[2,3-c]pyridin-5-yl)-2-hydroxypropyl)-4-cyclopropoxy-3-methoxybenzamide] | < 200 | < 200 |  |  |
| COc1cc(C(=O)NC[C@@](O)(CF)c2cc3c(c(-c4ccc(F)cc4)n2)OC[C@@]3(N)C(F)(F)F)ccc1OC1CC1 [Example 8] |  |  | < 200 | < 200 |
| COc1cc(C(=O)NC[C@](O)(c2cc3c(c(-c4ccc(F)cc4)n2)OC[C@@]3(N)C(F)(F)F)C2CC2)ccc1OC1CC1 [Example 9, N—((S)-2-((R)-3-amino-7-(4-fluorophenyl)-3-(trifluoromethyl)-2,3-dihydrofuro[2,3-c]pyridin-5-yl)-2-cyclopropyl-2-hydroxyethyl)-4-cyclopropoxy-3-methoxybenzamide] | < 200 | < 200 |  |  |
| COc1cc(C(=O)NC[C@](O)(c2cc3c(c(-c4ccc(F)cc4)n2)OC[C@@]3(N)C(F)(F)F)C2CC2)cc2cccnc12 [Example 10] | < 200 | > 200 |  |  |
| N[C@@]1(C(F)(F)F)COc2c1cc([C@@](O)(CNC(=O)c1cc(OC3CC3)c3ncccc3c1)C1CC1)nc2-c1ccc(F)cc1 [Example 11, N—((S)-2-((R)-3-amino-7-(4-fluorophenyl)-3-(trifluoromethyl)-2,3-dihydrofuro[2,3-c]pyridin-5-yl)-2-cyclopropyl-2-hydroxyethyl)-8-cyclopropoxyquinoline-6-carboxamide] | < 200 | > 200 |  |  |
| COc1cc(C(=O)NC[C@](O)(c2cc3c(c(-c4ccc(F)cc4)n2)OC[C@@]3(NC(=O)COC(C)=O)C(F)(F)F)C(F)(F)F)ccc1OC1CC1 [Example 13, 2-(((R)-5-((S)-3-(4-cyclopropoxy-3-methoxybenzamido)-1,1,1-trifluoro-2-hydroxypropan-2-yl)-7-(4-fluorophenyl)-3-(trifluoromethyl)-2,3-dihydrofuro[2,3-c]pyridin-3-yl)amino)-2-oxoethyl acetate] | < 200 | > 200 |  |  |
| N[C@@]1(C(F)(F)F)COc2c1cc([C@@](O)(CNC(=O)c1ccc(OC3CC3)c(OC3CC3)c1)C1CC1)nc2-c1ccc(F)cc1 [Example 19, N—((S)-2-((R)-3-amino-7-(4-fluorophenyl)-3-(trifluoromethyl)-2,3-dihydrofuro[2,3-c]pyridin-5-yl)-2-cyclopropyl-2-hydroxyethyl)-3,4-dicyclopropoxybenzamide] | < 200 | < 200 |  |  |
| C[C@](O)(CNC(=O)c1ccc(OC2CC2)c(OC2CC2)c1)c1cc2c(c(-c3ccc(F)cc3)n1)OC[C@@]2(N)C(F)(F)F [Example 20, N—((S)-2-((R)-3-amino-7-(4-fluorophenyl)-3-(trifluoromethyl)-2,3-dihydrofuro[2,3-c]pyridin-5-yl)-2-hydroxypropyl)-3,4-dicyclopropoxybenzamide] | < 200 | < 200 |  |  |
| N[C@@]1(C(F)(F)F)COc2c1cc([C@@](O)(CNC(=O)c1cc(OC3CC3)c3ncccc3c1)C1COC1)nc2-c1ccc(F)cc1 [Example 58] | > 200 |  |  |  |
| N[C@@]1(C(F)(F)F)COc2c1cc([C@](O)(CO)CNC(=O)c1cc(OC3CC3)c3ncccc3c1)nc2-c1ccc(F)cc1 [Example 59] | > 200 |  |  |  |
| N[C@@]1(C(F)(F)F)COc2c1cc([C@@](O)(CNC(=O)c1cc(OC3CC3)c3c(ccc[n+]3[O-])c1)C1CC1)nc2-c1ccc(F)cc1 [Example 59b] | > 200 |  |  |  |
| N[C@@]1(C(F)(F)F)COc2c1cc([C@@](O)(CNC(=O)c1cc(OC3CC3)c3[nH]c(=O)ccc3c1)C1CC1)nc2-c1ccc(F)cc1 [Example 59c] | > 200 |  |  |  |
| N[C@@]1(C(F)(F)F)COc2c1cc([C@@](O)(CNC(=O)c1cc(OC3CC3)c3nc(Cl)ccc3c1)C1CC1)nc2-c1ccc(F)cc1 [Example 59d] | < 200 |  |  |  |
| Cc1ccc2cc(C(=O)NC[C@](O)(c3cc4c(c(-c5ccc(F)cc5)n3)OC[C@@]4(N)C(F)(F)F)C3CC3)cc(OC3CC3)c2n1 [Example 59e] | < 200 |  |  |  |
| Cn1cc2cc(C(=O)NC[C@](O)(c3cc4c(c(-c5ccc(F)cc5)n3)OC[C@@]4(N)C(F)(F)F)C3CC3)cc(F)c2n1 [Example 64] | < 200 |  |  |  |
